PubChem BioAssay (NCI)
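Each compound was tested at five concentrations against cells in 96-well plates for 48 hours. Abbreviation: GI50, concentration required for 50% inhibition of growth. TGI is the concentration that stops growth completely.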

What was measured:
Assay in all cases: NCI tumour cell line growth inhibition, 48 h
MOLT-4 leukemia = system: MOLT-4 leukemia
MDA-MB-231 breast = system: MDA-MB-231 breast
M14 melanoma = system: M14 melanoma
KM12 colon = system: KM12 colon
U251 CNS = system: U251 CNS
EKVX NSCLC = system: EKVX NSCLC
HCT-116 colon = system: HCT-116 colon
SN12C renal = system: SN12C renal
K-562 leukemia = system: K-562 leukemia
MCF7 breast = system: MCF7 breast
RXF 393 renal = system: RXF 393 renal
PC-3 prostate = system: PC-3 prostate
OVCAR-4 ovarian = system: OVCAR-4 ovarian
SW-620 colon = system: SW-620 colon
NCI-H23 lung = system: NCI-H23 lung
A549 NSCLC = system: A549 NSCLC
HT29 colon = system: HT29 colon
BT-549 breast = system: BT-549 breast
SK-MEL-5 melanoma = system: SK-MEL-5 melanoma
SR leukemia = system: SR leukemia
HOP-92 NSCLC = system: HOP-92 NSCLC
HS 578T breast = system: HS 578T breast
COLO 205 colon = system: COLO 205 colon
OVCAR-5 ovarian = system: OVCAR-5 ovarian
SK-OV-3 ovarian = system: SK-OV-3 ovarian
NCI-H522 lung = system: NCI-H522 lung
SF-268 CNS = system: SF-268 CNS
MDA-MB-435 = system: MDA-MB-435
HCC-2998 colon = system: HCC-2998 colon
UO-31 renal = system: UO-31 renal
CCRF-CEM leukemia = system: CCRF-CEM leukemia
SNB-19 CNS = system: SNB-19 CNS
SK-MEL-2 melanoma = system: SK-MEL-2 melanoma
OVCAR-3 ovarian = system: OVCAR-3 ovarian
HOP-62 NSCLC = system: HOP-62 NSCLC
IGROV1 ovarian = system: IGROV1 ovarian
RPMI-8226 leukemia = system: RPMI-8226 leukemia
SF-539 CNS = system: SF-539 CNS
SF-295 CNS = system: SF-295 CNS
OVCAR-8 ovarian = system: OVCAR-8 ovarian
UACC-62 melanoma = system: UACC-62 melanoma
MALME-3M melanoma = system: MALME-3M melanoma
T-47D breast = system: T-47D breast
ACHN renal = system: ACHN renal
CAKI-1 renal = system: CAKI-1 renal
UACC-257 melanoma = system: UACC-257 melanoma
TK-10 renal = system: TK-10 renal
SNB-75 CNS = system: SNB-75 CNS
SK-MEL-28 melanoma = system: SK-MEL-28 melanoma
DU-145 prostate = system: DU-145 prostate
NCI-H226 lung = system: NCI-H226 lung
NCI/ADR-RES ovarian = system: NCI/ADR-RES ovarian
HCT-15 colon = system: HCT-15 colon
786-0 renal = system: 786-0 renal
LOX IMVI melanoma = system: LOX IMVI melanoma
HL-60(TB) leukemia = system: HL-60(TB) leukemia
NCI-H460 lung = system: NCI-H460 lung

COc1cccc(-c2nn(-c3ccccc3)cc2-c2ccnc(NCCCNC(=O)c3cccc(C(F)(F)F)c3)c2)c1 gave a GI50 (MOLT-4 leukemia) of 2630 nM, a TGI (MOLT-4 leukemia) of 9.35 µM and a GI50 (MDA-MB-231 breast) of 3.86 µM. The TGI (MDA-MB-231 breast) was 25.7 µM, the GI50 (M14 melanoma) was 4.63 µM and the TGI (M14 melanoma) was 30.3 µM. The GI50 (KM12 colon) was 3.64 µM, the TGI (KM12 colon) was 19.8 µM and the GI50 (U251 CNS) was 4.37 µM. For the same molecule, the TGI (U251 CNS) was 17.5 µM, the GI50 (EKVX NSCLC) was 5.01 µM and the TGI (EKVX NSCLC) was 36.2 µM. For the same molecule, the GI50 (HCT-116 colon) was 3.81 µM, the TGI (HCT-116 colon) was 16.1 µM and the GI50 (SN12C renal) was 6.06 µM. The TGI (SN12C renal) was 38.5 µM, the GI50 (K-562 leukemia) was 3.69 µM and the TGI (K-562 leukemia) was 31.3 µM. The GI50 (MCF7 breast) was 3.54 µM, the TGI (MCF7 breast) was 18.5 µM and the GI50 (RXF 393 renal) was 2200 nM. The TGI (RXF 393 renal) was 7.52 µM, the GI50 (PC-3 prostate) was 3.18 µM and the TGI (PC-3 prostate) was 24 µM. The GI50 (OVCAR-4 ovarian) was 4.22 µM, the TGI (OVCAR-4 ovarian) was 32.2 µM and the GI50 (SW-620 colon) was 4.35 µM. It also gave a TGI (SW-620 colon) of 31.5 µM, a GI50 (NCI-H23 lung) of 4.49 µM and a TGI (NCI-H23 lung) of 24.2 µM. For the same molecule, the GI50 (A549 NSCLC) was 4.07 µM, the TGI (A549 NSCLC) was 16.2 µM and the GI50 (HT29 colon) was 3.61 µM. It also gave a TGI (HT29 colon) of 13.6 µM, a GI50 (BT-549 breast) of 2840 nM and a TGI (BT-549 breast) of 9 µM. The GI50 (SK-MEL-5 melanoma) was 1540 nM, the TGI (SK-MEL-5 melanoma) was 3.34 µM and the GI50 (SR leukemia) was 2100 nM. The TGI (SR leukemia) was 8.02 µM, the GI50 (HOP-92 NSCLC) was 2480 nM and the TGI (HOP-92 NSCLC) was 17.4 µM. It also gave a GI50 (HS 578T breast) of 5.6 µM, a TGI (HS 578T breast) of 36.9 µM and a GI50 (COLO 205 colon) of 3.33 µM. The TGI (COLO 205 colon) was 12.4 µM, the GI50 (OVCAR-5 ovarian) was 11.3 µM and the TGI (OVCAR-5 ovarian) was 48.7 µM. It also gave a GI50 (SK-OV-3 ovarian) of 7.04 µM, a TGI (SK-OV-3 ovarian) of 29.2 µM and a GI50 (NCI-H522 lung) of 2580 nM. The TGI (NCI-H522 lung) was 12.2 µM, the GI50 (SF-268 CNS) was 9.51 µM and the TGI (SF-268 CNS) was 87.8 µM. For the same molecule, the GI50 (MDA-MB-435) was 3.27 µM, the TGI (MDA-MB-435) was 17.1 µM and the GI50 (HCC-2998 colon) was 3.96 µM. The TGI (HCC-2998 colon) was 18.2 µM, the GI50 (UO-31 renal) was 2690 nM and the TGI (UO-31 renal) was 16.6 µM. It also gave a GI50 (CCRF-CEM leukemia) of 6.11 µM, a TGI (CCRF-CEM leukemia) of over 100 µM and a GI50 (SNB-19 CNS) of 6.03 µM. The TGI (SNB-19 CNS) was 31.2 µM, the GI50 (SK-MEL-2 melanoma) was 7.23 µM and the TGI (SK-MEL-2 melanoma) was 23.6 µM. It also gave a GI50 (OVCAR-3 ovarian) of 4.52 µM, a TGI (OVCAR-3 ovarian) of 19.7 µM and a GI50 (HOP-62 NSCLC) of 10.3 µM. For the same molecule, the TGI (HOP-62 NSCLC) was 30.6 µM, the GI50 (IGROV1 ovarian) was 7.59 µM and the TGI (IGROV1 ovarian) was 32 µM. For the same molecule, the GI50 (RPMI-8226 leukemia) was 2640 nM, the TGI (RPMI-8226 leukemia) was 11.5 µM and the GI50 (SF-539 CNS) was 2920 nM. The TGI (SF-539 CNS) was 8.29 µM, the GI50 (SF-295 CNS) was 3.32 µM and the TGI (SF-295 CNS) was 13.9 µM. For the same molecule, the GI50 (OVCAR-8 ovarian) was 4.67 µM, the TGI (OVCAR-8 ovarian) was 20.1 µM and the GI50 (UACC-62 melanoma) was 3.58 µM. For the same molecule, the TGI (UACC-62 melanoma) was 16.2 µM, the GI50 (MALME-3M melanoma) was 2660 nM and the TGI (MALME-3M melanoma) was 8.22 µM. The GI50 (T-47D breast) was 2330 nM, the TGI (T-47D breast) was 8.4 µM and the GI50 (ACHN renal) was 4.08 µM. The TGI (ACHN renal) was 18.3 µM, the GI50 (CAKI-1 renal) was 6.27 µM and the TGI (CAKI-1 renal) was 32.5 µM. It also gave a GI50 (UACC-257 melanoma) of 4.4 µM, a TGI (UACC-257 melanoma) of 15.8 µM and a GI50 (TK-10 renal) of 7.33 µM. For the same molecule, the TGI (TK-10 renal) was 31.2 µM, the GI50 (SNB-75 CNS) was 17 µM and the TGI (SNB-75 CNS) was 57.8 µM. The GI50 (SK-MEL-28 melanoma) was 5.45 µM, the TGI (SK-MEL-28 melanoma) was 25.3 µM and the GI50 (DU-145 prostate) was 8.72 µM. The TGI (DU-145 prostate) was 66.3 µM, the GI50 (NCI-H226 lung) was 2240 nM and the TGI (NCI-H226 lung) was 10.7 µM. The GI50 (NCI/ADR-RES ovarian) was 3.54 µM, the TGI (NCI/ADR-RES ovarian) was 16.8 µM and the GI50 (HCT-15 colon) was 3.4 µM. The TGI (HCT-15 colon) was 15.6 µM, the GI50 (786-0 renal) was 3.75 µM and the TGI (786-0 renal) was 15.1 µM. For the same molecule, the GI50 (LOX IMVI melanoma) was 4.55 µM, the TGI (LOX IMVI melanoma) was 18.3 µM and the GI50 (HL-60(TB) leukemia) was 3.27 µM. The TGI (HL-60(TB) leukemia) was 13.1 µM, the GI50 (NCI-H460 lung) was 4.03 µM and the TGI (NCI-H460 lung) was 18.2 µM.
